Laboratory results: patent US7247441B2, “Nucleic acid sequence and protein in addition to polypeptides coding for mannitol dehydrogenases or parts thereof and the production and use thereof in diagnosis and therapy” (Biomay Produktions- Und Handels-Aktienge Sellschaft, priority 2002, dated 2007)

Target: T1, Cladosporium herbarum mannitol dehydrogenase (Cladosporium herbarum, UniProt P0C0Y5)
T1 construct: the enzyme activity was determined with the traditionally purified protein; from tissue; host or cells: Cladosporium herbarum extract (ammonium sulfate precipitation, HIC, anion exchange)
Experiment: Enzyme activity determination, absorption of NADPH at 340 nm
Assay type: biochemical
Protocol: The experiments reveal that the highly purified major allergen of Cladosporium herbarum is indeed a mannitol dehydrogenase which catalyzes the following metabolic reaction: Fructose+NADPH+H^+ ? mannitol+NADP^+. […] The method of the activity determination is described in example 3.
To confirm the results according to the invention, the enzyme activity was determined with the traditionally purified protein. The absorption of NADPH was measured in a photometer at 340 nm.
• 50 mM Tris-HCl, pH 7.5 • 0.25 mM NADPH or NADH • D-fructose or fructose-6-phosphate (0.1; 0.2; 0.4; 0.6; 0.8; 1.0; 1.2 M) • H2O to 1 ml • the reaction is started with 0.5 μl of MtDH Results: • Reaction with fructose and NADPH • No reaction with fructose-6-phosphate and NADH

T1 sequence (P0C0Y5 whole entry): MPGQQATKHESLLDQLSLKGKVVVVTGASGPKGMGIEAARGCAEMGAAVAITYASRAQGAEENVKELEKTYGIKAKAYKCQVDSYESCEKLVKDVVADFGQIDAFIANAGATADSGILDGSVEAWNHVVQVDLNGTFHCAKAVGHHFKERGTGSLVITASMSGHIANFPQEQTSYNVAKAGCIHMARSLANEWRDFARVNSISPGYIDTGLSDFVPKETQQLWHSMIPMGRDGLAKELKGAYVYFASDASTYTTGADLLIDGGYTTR

| SMILES | activity as cosubstrate or substrate of the mannitol dehydrogenase | effect on the reaction fructose + NADPH to mannitol + NADP+ |
| --- | --- | --- |
| NC(=O)C1=CN([C@@H]2O[C@H](COP(=O)(O)OP(=O)(O)OC[C@H]3O[C@@H](n4cnc5c(N)ncnc54)[C@H](O)[C@@H]3O)[C@@H](O)[C@H]2O)C=CC1 [NADH] | not active as cosubstrate |  |
| O=C(CO)[C@@H](O)[C@H](O)[C@H](O)COP(=O)(O)O [fructose-6-phosphate] | not active as substrate | inhibitory effect |
